The values below come from BindingDB's records for patent US8962648 (Oncotherapy Science, 2015).

The term IC50 denotes the point on the concentration scale where inhibition reaches its midpoint. Higher therefore signals weaker potency in that assay.

The assay addresses T1, Lymphokine-activated killer T-cell-originated protein kinase (Homo sapiens, UniProt Q96KB5).
T1 sequence (Q96KB5 whole entry): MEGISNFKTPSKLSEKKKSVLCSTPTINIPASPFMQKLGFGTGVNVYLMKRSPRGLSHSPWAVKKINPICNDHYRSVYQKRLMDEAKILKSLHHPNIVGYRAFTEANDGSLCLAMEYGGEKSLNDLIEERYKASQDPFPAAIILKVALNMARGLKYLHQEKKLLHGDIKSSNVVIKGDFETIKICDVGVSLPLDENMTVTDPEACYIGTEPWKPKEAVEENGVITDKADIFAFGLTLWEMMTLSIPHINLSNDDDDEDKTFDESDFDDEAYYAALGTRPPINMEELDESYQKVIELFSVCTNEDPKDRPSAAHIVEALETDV
Description: Kinase Assay. To be noted: pH 7.4; 25 °C. As to the method: PBK activity was determined in the presence or absence of compounds using fluorescein isothiocyanate-labeled (FITC-labeled) histone H3 peptide as a substrate. […] The serially diluted compounds, 0.8 ng/micro-L PBK (Carna Biosciences) and 100 nM FITC-labeled histone H3 peptide were reacted in a reaction buffer (20 mM HEPES, 0.01% Tween-20, 0.3 mM MgCl2, 2 mM dithiothreitol, 50 micro-M ATP, pH 7.4) at room temperature for 1 hour. The reaction was stopped by the addition of three fold assay volume of progressive binding solution. Following 0.5 hour incubation at room temperature.

The structures appear in SMILES notation. Values joined by “and” are separate entries in the source; they are usually repeats but may differ in a detail not shown here. Identical values can stand only once.

Compound `CC(c1ccc(-c2cccc3[nH]c(=O)c4sccc4c23)cc1)N(C)C` (configuration not stated) [US8962648, 346] returned an IC50 of 9.2 nM.

`CN(C)Cc1ccc(-c2c(O)ccc3[nH]c(=O)c4sccc4c23)cc1` [US8962648, 165] had an IC50 of 6.9 nM.

`CN(C)CC1(c2ccc(-c3c(O)ccc4[nH]c(=O)c5sccc5c34)cc2)CC1` [US8962648, 379] displayed an IC50 of 3.6 nM.

The compound `C[C@H](CN)c1ccc(-c2c(O)ccc3[nH]c(=O)c4sccc4c23)cc1` [US8962648, 1163] came in with an IC50 of 1.3 nM.

On to `CC(c1ccc(-c2c(O)ccc3[nH]c(=O)c4sccc4c23)cc1)N(C)C` (configuration not stated) [US8962648, 192], for which the IC50 is 1.6 nM and 1.9 nM.

In turn, `NCc1ccc(-c2c(O)cc(F)c3[nH]c(=O)c4sccc4c23)cc1` [US8962648, 256] returned an IC50 of 2.5 nM.

In turn, `N[C@H]1CCN(c2ccc3[nH]c(=O)c4sc(-c5ccc(O)cc5)cc4c3c2)C1` [US8962648, 51] had an IC50 of 78 nM.

`CC[C@H](N)c1ccc(-c2c(O)ccc3[nH]c(=O)c4sccc4c23)cc1` [US8962648, 1120]: the IC50 was found to be 0.88 nM.

The compound `CC(C)(CN)c1ccc(-c2c(O)ccc3[nH]c(=O)c4sccc4c23)cc1` [US8962648, 277] displayed an IC50 of 0.67 nM.

Compound `CCN[C@H](CC)c1ccc(-c2c(O)ccc3[nH]c(=O)c4sccc4c23)cc1` [US8962648, 1127] gave an IC50 of 1.4 nM.

Regarding `NCC1(c2ccc(-c3c(O)cc(Br)c4[nH]c(=O)c5sccc5c34)cc2)CC1` [US8962648, 1401], the midpoint of inhibition, the IC50, lay at 51 nM.

As for `COc1ccc2[nH]c(=O)c3sccc3c2c1-c1ccc([C@H](C)N)cc1` [US8962648, 232], the IC50 is 7.4 nM.

Regarding `CC(N)c1ccc(-c2c(O)ccc3[nH]c(=O)c4sccc4c23)cc1` (configuration not stated) [US8962648, 195], the IC50 amounted to 0.73 nM.

`CCNCc1ccc(-c2c(OC)ccc3[nH]c(=O)c4sccc4c23)cc1` [US8962648, 269] returned an IC50 of 6 nM.

`CNC[C@H](C)c1ccc(-c2c(OC)ccc3[nH]c(=O)c4sccc4c23)cc1` [US8962648, 1189] returned an IC50 of 3 nM.

With `CCC(N)c1ccc(-c2c(O)cc(Cl)c3[nH]c(=O)c4sccc4c23)cc1` (configuration not stated) [US8962648, 1088], the IC50 came out at 16 nM.

With `O=c1[nH]c2ccc(O)c(-c3ccc(CN4CCC(O)C4)c(F)c3)c2c2ccsc12` (configuration not stated) [US8962648, 278], the IC50 was 0.97 nM.

In turn, `NS(=O)(=O)c1ccc(-c2c(O)ccc3[nH]c(=O)c4sccc4c23)cc1` [US8962648, 65] came in with an IC50 of 1.8 nM.

`N#CC1(c2ccc(-c3c(O)ccc4[nH]c(=O)c5sccc5c34)cc2)CC1` [US8962648, 361] showed an IC50 of 32 nM.

`CC[C@@H](N)c1ccc(-c2c(O)cc(Cl)c3[nH]c(=O)c4sccc4c23)cc1` [US8962648, 1159] came in with an IC50 of 26 nM.

Turning to `NCC1(c2ccc(-c3c(O)cc(Cl)c4[nH]c(=O)c5sccc5c34)cc2)CC1` [US8962648, 1116], the midpoint of inhibition, the IC50, lay at 22 nM.

Compound `CCN(CC)C(C)c1ccc(-c2c(O)ccc3[nH]c(=O)c4sccc4c23)cc1` (configuration not stated) [US8962648, 196] displayed an IC50 of 4.5 nM.

The compound `CC(CN)c1ccc(-c2c(O)ccc3[nH]c(=O)c4sccc4c23)cc1F` (configuration not stated) [US8962648, 1174] had an IC50 of 1.5 nM.

In the case of `COc1ccc2[nH]c(=O)c3sccc3c2c1-c1ccc(C(C)N2CCCC2)cc1` (configuration not stated) [US8962648, 216], the IC50 was determined as 21 nM.

Consider `NCc1ccc(-c2c(O)cc(Br)c3[nH]c(=O)c4sccc4c23)cc1` [US8962648, 270], for which the IC50 was found to be 31 nM.

Compound `CNCc1ccc(-c2c(OC)ccc3[nH]c(=O)c4sccc4c23)cc1` [US8962648, 188] came in with an IC50 of 7.8 nM.

`CC(N)c1ccc(-c2c(O)ccc3[nH]c(=O)c4sccc4c23)cc1F` (configuration not stated) [US8962648, 359] yielded an IC50 of 0.92 nM.

On to `COc1ccc2[nH]c(=O)c3sccc3c2c1-c1ccc(CCN)cc1` [US8962648, 169], for which the IC50 was determined as 22 nM.

`Nc1ccc(-c2c(O)ccc3[nH]c(=O)c4sccc4c23)cc1O` [US8962648, 217]: the concentration for half-maximal inhibition (IC50) amounted to 2.3 nM.

On to `CC(C)(CN)c1ccc(-c2c(O)ccc3[nH]c(=O)c4sccc4c23)cc1F` [US8962648, 1271], for which the midpoint of inhibition, the IC50, lay at 1 nM.

On to `C[C@@H](NS(C)(=O)=O)c1ccc(-c2c(O)ccc3[nH]c(=O)c4sccc4c23)cc1` [US8962648, 301], for which the IC50 amounted to 3.2 nM.

As to `CC[C@H](NC)c1ccc(-c2c(O)cc(Cl)c3[nH]c(=O)c4sccc4c23)cc1` [US8962648, 1154], the IC50 stood at 9.4 nM.

With `CCN(CC)C(C)c1ccc(-c2c(O)ccc3[nH]c(=O)c4sccc4c23)cc1F` (configuration not stated) [US8962648, 356], half-maximal inhibition (IC50) was put at 3.6 nM.

Regarding `COc1cc(Br)c2[nH]c(=O)c3sccc3c2c1-c1ccc(C2(CN)CC2)cc1` [US8962648, 1391], the IC50 worked out at 70 nM.

In turn, `CN(C)S(=O)(=O)c1ccc(-c2c(O)ccc3[nH]c(=O)c4sccc4c23)cc1` [US8962648, 304] came in with an IC50 of 45 nM.

Consider `NCCc1ccc(-c2c(O)ccc3[nH]c(=O)c4sccc4c23)cc1` [US8962648, 176], for which the IC50 was 1.2 nM and 1.1 nM.

In turn, `Cc1cc(O)c(-c2ccc(C(C)(C)N)cc2)c2c1[nH]c(=O)c1sccc12` [US8962648, 1330] gave an IC50 of 8.3 nM.

Take `CN(C)CCc1ccc(-c2c(O)ccc3[nH]c(=O)c4sccc4c23)cc1F` [US8962648, 327]: the midpoint of inhibition, the IC50, lay at 1.9 nM.

Regarding `CNCCc1ccc(-c2c(O)cc(Cl)c3[nH]c(=O)c4sccc4c23)cc1` [US8962648, 1165], the IC50 was 58 nM.

Turning to `CCC(CC)(CN)c1ccc(-c2c(O)ccc3[nH]c(=O)c4sccc4c23)cc1` [US8962648, 1209], 1.8 nM corresponded to half-maximal inhibition (IC50).

The compound `COc1cc(C)c2[nH]c(=O)c3sc(Cl)cc3c2c1-c1ccc([C@@H](C)CN)cc1` [US8962648, 1354] displayed a half-inhibitory concentration (IC50) of 11 nM.

In the case of `COc1cc(Cl)c2[nH]c(=O)c3sccc3c2c1-c1ccc(C2(CN)CCC2)cc1` [US8962648, 1321], the 50% inhibitory concentration (IC50) stood at 96 nM.

For `COc1ccc2[nH]c(=O)c3sccc3c2c1-c1ccc(CCN)c(F)c1` [US8962648, 265], the IC50 was 3.8 nM.

Compound `CCC(CN)c1ccc(-c2c(O)cc(Cl)c3[nH]c(=O)c4sccc4c23)cc1` (configuration not stated) [US8962648, 1312] yielded an IC50 of 19 nM.

`C[C@@H](c1ccc(-c2c(O)ccc3[nH]c(=O)c4sccc4c23)cc1)N(C)C` [US8962648, 335] yielded an IC50 of 2.9 nM.

In turn, `CC[C@H](NC)c1ccc(-c2c(O)ccc3[nH]c(=O)c4sccc4c23)cc1` [US8962648, 1148] showed an IC50 of 1.3 nM.

In the case of `C[C@@H](N)c1ccc(-c2c(O)ccc3[nH]c(=O)c4sccc4c23)cc1` [US8962648, 275], it took 0.54 nM to reach half-maximal inhibition (IC50).

For the compound `CC(C)NCc1ccc(-c2c(O)ccc3[nH]c(=O)c4sccc4c23)cc1` [US8962648, 229], the midpoint of inhibition, the IC50, lay at 4.2 nM.

In the case of `O=c1[nH]c2ccc(O)c(C3=CCNCC3)c2c2ccsc12` [US8962648, 84], the IC50 was determined as 0.78 nM.

`COc1ccc2[nH]c(=O)c3sccc3c2c1-c1ccc(S(=O)(=O)NCCF)cc1` [US8962648, 333] gave an IC50 of 31 nM.

As to `CC[C@H](N)c1ccc(-c2c(OC)ccc3[nH]c(=O)c4sccc4c23)cc1` [US8962648, 1121], the IC50 was found to be 2.9 nM.

The compound `Cc1cc2c(s1)c(=O)[nH]c1ccc(O)c(-c3ccc(CN)cc3)c12` [US8962648, 95] registered an IC50 of 4.4 nM.

In the case of `CN[C@H](C)c1ccc(-c2c(OC)cc(C)c3[nH]c(=O)c4sccc4c23)cc1` [US8962648, 1265], half-maximal inhibition (IC50) required 67 nM.

Turning to `CC(c1ccc(-c2c(O)c(F)c(F)c3[nH]c(=O)c4sccc4c23)cc1)N(C)C` (configuration not stated) [US8962648, 341], the IC50 is 34 nM.

Consider `CCC(C#N)c1ccc(-c2c(O)ccc3[nH]c(=O)c4sccc4c23)cc1` (configuration not stated) [US8962648, 1162], for which the IC50 was determined as 13 nM.

Regarding `N#CCc1ccc(-c2c(O)ccc3[nH]c(=O)c4sccc4c23)cc1` [US8962648, 81], the IC50 was found to be 12 nM.

In turn, `Cc1cc(O)c(-c2ccc(C(C)CS(N)(=O)=O)cc2)c2c1[nH]c(=O)c1sccc12` (configuration not stated) [US8962648, 1419] came in with an IC50 of 82 nM.

`CS(=O)(=O)Nc1ccc(-c2c(O)ccc3[nH]c(=O)c4sccc4c23)cc1` [US8962648, 77] registered an IC50 of 2.6 nM.

`Cc1cc(O)c(-c2ccc(C(C)(C)CN)c(F)c2)c2c1[nH]c(=O)c1sccc12` [US8962648, 1278] had an IC50 of 22 nM.

`CCC(N)c1ccc(-c2c(O)ccc3[nH]c(=O)c4sccc4c23)cc1` (configuration not stated) [US8962648, 336] yielded an IC50 of 0.82 nM.

As for `NCCc1ccc(-c2c(O)cc(Cl)c3[nH]c(=O)c4sccc4c23)cc1Cl` [US8962648, 1268], the IC50 is 3.9 nM.

`COc1cc(C)c2[nH]c(=O)c3sccc3c2c1-c1ccc(C2(CN)CCC2)cc1` [US8962648, 1297] registered an IC50 of 35 nM.

`COc1ccc2[nH]c(=O)c3sccc3c2c1-c1ccc(C(C)CN)cc1` (configuration not stated) [US8962648, 373] displayed an IC50 of 3.2 nM.

`CCC(c1ccc(-c2c(O)ccc3[nH]c(=O)c4sccc4c23)cc1)N(C)C` (configuration not stated) [US8962648, 339] yielded an IC50 of 1.9 nM.

Take `NCC1CCN(Cc2ccc(-c3c(O)ccc4[nH]c(=O)c5sccc5c34)cc2F)CC1` [US8962648, 235]: the IC50 was determined as 0.57 nM.

`CC[C@@H](N)c1ccc(-c2c(O)cc(Br)c3[nH]c(=O)c4sccc4c23)cc1` [US8962648, 1150] registered an IC50 of 47 nM.

For the compound `CN[C@H](C)c1ccc(-c2c(O)cc(Br)c3[nH]c(=O)c4sccc4c23)cc1` [US8962648, 1135], inhibition was half-maximal at 30 nM (IC50).
